{
  "source": "patent US11622954B2",
  "about": "“Estrogen receptor ligands, compositions and methods related thereto” (The Regents of the University of California, priority 2016, dated 2023)",
  "key": {"[1]": {"assay": "concentrations over time in plasma, spinal cord and brain, adoptive EAE setup (Example 4)", "format": "in vivo, mice", "details": "for persistence in brain and spinal tissue: 12 hours", "description": "The experimental setup and monitoring was the same as in Example 2. […] Both Compounds 1 and 2 persisted in brain and spinal tissue at 12 hours."}, "adoptive EAE": {"test_system": "adoptive EAE", "assay": "adoptive EAE clinical score (Example 2)", "format": "in vivo, mice", "details": "FIG. 2A; for EAE clinical score, dose dependence: high (8 mg/kg/day) and low (2 mg/kg/day) dose", "from_the_text": "Active EAE induction in Example 1 uses pertussis toxin to artificially make the BBB more permeable and permit more infiltration of activated Th1/Th17 immune cells into the CNS. […] Thus, an alternative EAE induction method was used. Adoptive EAE uses MOG primed and activated immune cells from donor immunized mice for subsequent transfer into recipient mice with no administration of pertussis toxin. Thus, the blood brain barrier interactions in adoptive EAE are more physiologic than in active EAE. […] This experiment was larger since 2 sets of mice (donors and recipients) were needed and 2 doses were used, making the adoptive EAE experiment 4 times larger than the active EAE experiment 1. […] Brain and spinal cord levels were undetectable 24 hours after dosing."}, "[2]": {"assay": "DPN concentration 24 hours after dosing in adoptive EAE mice (Example 2)", "format": "in vivo", "description": "This experiment was larger since 2 sets of mice (donors and recipients) were needed and 2 doses were used, making the adoptive EAE experiment 4 times larger than the active EAE experiment 1.\nBrain and spinal cord levels were undetectable 24 hours after dosing."}, "active EAE": {"test_system": "active EAE", "assay": "active EAE clinical score (Example 1)", "format": "in vivo, C57BL6 female mice", "details": "high dose (8 mg/kg DPN, 10.8 mg/kg Compound 1), every other day, day 12 to day 48; FIG. 1A"}, "[3]": {"assay": "DPN concentration in plasma, spinal cord and brain of active EAE mice (Example 1)", "details": "three hours after the end of disease; FIG. 1B-1D"}, "[4]": {"assay": "tissue concentrations of DPN in healthy mice (Example 3)", "format": "in vivo", "details": "for levels of DPN in plasma, brain and spinal cord, compared to dosing with DPN: molar equivalent doses", "description": "Compound 1 levels were not measured. […] At 12 hours, only high dose Compound 1 was detectable in plasma.\nThis experiment was repeated and the data above was confirmed.\nThis experiment was repeated with fresher standards and faster freezing of tissues once obtained from the mouse sacrifice."}, "EAE": {"test_system": "EAE", "details": "cited from earlier work"}, "multiple sclerosis": {"test_system": "multiple sclerosis", "details": "cited from earlier work"}, "[5]": {"details": "MS patients, phase 2 clinical trial"}},
  "data": [
    {"smiles": "CC(=O)Oc1ccc(C[C@@H](C#N)c2ccc(OC(C)=O)cc2)cc1", "note": "[Compound 1]", "values": [
      {"measurement": "persistence in brain and spinal tissue", "setting": "[1]", "result": "persisted"},
      {"measurement": "efficacy on EAE clinical score compared to DPN", "setting": "adoptive EAE; adoptive EAE", "result": "more efficacy"},
      {"measurement": "EAE clinical score, dose dependence", "setting": "adoptive EAE", "result": "dose responses"},
      {"measurement": "brain and spinal cord levels", "setting": "[2]", "result": "undetectable"},
      {"measurement": "plasma concentration of DPN, Compound 1 vs DPN", "setting": "[2]; FIG. 2B", "result": "no difference"},
      {"measurement": "effect on EAE disease progression (EAE clinical score)", "setting": "active EAE", "result": "protective effects"},
      {"measurement": "amounts of DPN in plasma, spinal cord tissue and brain tissue", "setting": "[3]", "result": "improvement in maintaining effective amounts of DPN"},
      {"measurement": "levels of DPN in plasma, brain and spinal cord, compared to dosing with DPN", "setting": "[4]; 3 and 6 hours", "result": "higher"},
      {"measurement": "levels of DPN in plasma, brain and spinal cord, compared to dosing with DPN", "setting": "[4]; 15 minutes", "result": "lower"},
      {"measurement": "DPN level in plasma", "setting": "[4]; 12 hours, high dose", "result": "detectable"}
    ]},
    {"smiles": "CCC(=O)Oc1ccc(CC(C#N)c2ccc(OC(=O)CC)cc2)cc1", "note": "(stereo not drawn) [Compound 2]", "values": [
      {"measurement": "persistence in brain and spinal tissue", "setting": "[1]", "result": "persisted"},
      {"measurement": "concentration in plasma, spinal cord and brain tissue, among DPN, Compound 1 and Compound 2", "setting": "[1]; first 6 hours after treatment, FIG. 7A-7C", "result": "highest concentration"}
    ]},
    {"smiles": "N#CC(Cc1ccc(O)cc1)c1ccc(O)cc1", "note": "(stereo not drawn) [DPN, 2,3-bis(4-hydroxyphenyl)propanenitrile, reference compound]", "values": [
      {"measurement": "EAE clinical score, dose dependence", "setting": "adoptive EAE", "result": "dose responses"},
      {"measurement": "brain and spinal cord levels", "setting": "[2]", "result": "undetectable"},
      {"measurement": "effect on EAE disease progression (EAE clinical score)", "setting": "active EAE", "result": "protective effects"},
      {"measurement": "efficacy in EAE of dosing regimen", "setting": "EAE; dosing every two days, shown in the past", "result": "efficacious"},
      {"measurement": "clinical EAE disease severity", "setting": "EAE; known treatment of EAE", "result": "reduces clinical EAE disease severity"},
      {"measurement": "tolerability of dosing regimen", "setting": "EAE; mouse, in vivo", "result": "tolerable"}
    ]},
    {"smiles": "C[C@]12CC[C@@H]3c4ccc(O)cc4CC[C@H]3[C@@H]1C[C@@H](O)[C@@H]2O", "note": "[estriol]", "values": [
      {"measurement": "fatigue", "setting": "multiple sclerosis; [5]", "result": "reduced fatigue"},
      {"measurement": "relapses", "setting": "multiple sclerosis; [5]", "result": "reduced relapses"},
      {"measurement": "cortical gray matter atrophy", "setting": "multiple sclerosis; estriol as compared to placebo treated MS patients", "result": "spared"}
    ]}
  ]
}
